PMC10840383, “Clinical features, functional consequences, and rescue pharmacology of missense GRID1 and GRID2 human variants” (Human Molecular Genetics, 2023)
Positions count from the first letter of the chain named.

Assays:
Format in all cases: cell-based
Conditions in all cases: positive = increase, negative = decrease of activity
GluD1-T649I = molecular target: T1, GluD1-T649I (Homo sapiens, UniProt Q9ULK0, T649I); assay: TEVC of constitutive current, Xenopus oocytes expressing GluD1-T649I
T1 construct: expressed in transfected cells; host or cells: Xenopus laevis oocytes injected with cRNA
T1 sequence (Q9ULK0 21-1009 T649I): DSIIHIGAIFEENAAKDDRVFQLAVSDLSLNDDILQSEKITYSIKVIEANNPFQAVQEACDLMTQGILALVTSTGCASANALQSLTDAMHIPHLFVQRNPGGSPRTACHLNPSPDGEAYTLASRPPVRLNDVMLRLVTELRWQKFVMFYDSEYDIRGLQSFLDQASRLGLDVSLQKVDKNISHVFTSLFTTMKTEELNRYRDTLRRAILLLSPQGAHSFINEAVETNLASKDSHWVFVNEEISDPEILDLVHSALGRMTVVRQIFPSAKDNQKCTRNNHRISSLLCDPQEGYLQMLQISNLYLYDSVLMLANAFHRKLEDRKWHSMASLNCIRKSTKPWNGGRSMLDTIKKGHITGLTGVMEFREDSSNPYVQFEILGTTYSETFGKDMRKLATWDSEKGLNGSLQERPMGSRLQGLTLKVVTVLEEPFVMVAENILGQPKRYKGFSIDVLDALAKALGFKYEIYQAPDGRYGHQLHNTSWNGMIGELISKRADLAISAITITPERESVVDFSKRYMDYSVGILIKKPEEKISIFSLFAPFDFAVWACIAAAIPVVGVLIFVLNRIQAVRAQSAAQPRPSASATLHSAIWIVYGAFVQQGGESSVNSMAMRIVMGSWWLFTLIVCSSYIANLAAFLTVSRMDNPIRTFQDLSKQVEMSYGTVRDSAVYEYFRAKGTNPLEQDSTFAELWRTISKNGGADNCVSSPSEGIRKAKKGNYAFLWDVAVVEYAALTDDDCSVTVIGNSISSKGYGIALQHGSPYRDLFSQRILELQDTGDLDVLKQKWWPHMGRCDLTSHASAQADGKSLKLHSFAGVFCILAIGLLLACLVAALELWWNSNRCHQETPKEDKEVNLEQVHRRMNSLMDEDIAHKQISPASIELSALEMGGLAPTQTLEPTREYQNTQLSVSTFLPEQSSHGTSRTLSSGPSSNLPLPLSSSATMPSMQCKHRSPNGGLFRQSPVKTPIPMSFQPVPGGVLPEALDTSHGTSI

GluD1-S647F = molecular target: T2, GluD1-S647F (Homo sapiens, UniProt Q9ULK0, S647F); assay: TEVC of constitutive current, Xenopus oocytes expressing GluD1-S647F
T2 construct: expressed in transfected cells; host or cells: Xenopus laevis oocytes injected with cRNA
T2 sequence (Q9ULK0 21-1009 S647F): T1 sequence (Q9ULK0 21-1009 T649I) with S627F, I629T

GluD2-S646P = molecular target: T3, GluD2-S646P (Rattus norvegicus, UniProt Q63226, S646P); assay: TEVC of constitutive current, Xenopus oocytes expressing GluD2-S646P
T3 construct: expressed in transfected cells; host or cells: Xenopus laevis oocytes injected with cRNA
T3 sequence (Q63226 24-1007 S646P): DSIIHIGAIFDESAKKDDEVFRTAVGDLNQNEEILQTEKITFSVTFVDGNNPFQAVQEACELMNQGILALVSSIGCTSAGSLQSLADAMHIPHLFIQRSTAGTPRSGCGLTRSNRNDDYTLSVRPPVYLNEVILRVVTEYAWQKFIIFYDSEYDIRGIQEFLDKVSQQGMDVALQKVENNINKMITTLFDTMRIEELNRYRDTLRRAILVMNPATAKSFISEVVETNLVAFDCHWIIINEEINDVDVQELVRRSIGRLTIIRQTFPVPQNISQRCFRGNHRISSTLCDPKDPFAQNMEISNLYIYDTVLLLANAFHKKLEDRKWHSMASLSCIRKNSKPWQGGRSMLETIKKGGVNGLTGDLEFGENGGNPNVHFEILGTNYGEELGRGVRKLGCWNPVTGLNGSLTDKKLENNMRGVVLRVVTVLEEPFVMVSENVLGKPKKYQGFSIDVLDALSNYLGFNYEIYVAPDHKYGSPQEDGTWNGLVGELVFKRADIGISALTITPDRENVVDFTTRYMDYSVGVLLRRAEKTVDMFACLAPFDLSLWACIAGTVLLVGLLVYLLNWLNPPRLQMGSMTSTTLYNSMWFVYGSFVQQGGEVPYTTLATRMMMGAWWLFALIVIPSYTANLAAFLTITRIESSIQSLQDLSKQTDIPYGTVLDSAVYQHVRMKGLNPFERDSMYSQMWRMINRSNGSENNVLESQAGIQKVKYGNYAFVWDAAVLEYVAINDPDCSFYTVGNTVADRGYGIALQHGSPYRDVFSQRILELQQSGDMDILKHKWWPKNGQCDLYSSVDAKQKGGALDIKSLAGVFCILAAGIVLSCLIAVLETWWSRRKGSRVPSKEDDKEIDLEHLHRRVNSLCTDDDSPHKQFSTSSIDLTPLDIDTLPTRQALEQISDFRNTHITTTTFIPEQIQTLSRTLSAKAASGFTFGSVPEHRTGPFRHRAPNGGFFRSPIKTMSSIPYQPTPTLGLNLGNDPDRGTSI

Row | SMILES | D-Serine effect (Baseline −10 mM D-Serine) (GluD1-T649I; 10 mM D-serine) | D-Serine effect (Baseline −10 mM D-Serine) (GluD1-S647F; 10 mM D-serine) | D-Serine effect (Baseline −10 mM D-Serine) (GluD2-S646P; 10 mM D-serine) | Pentamidine effect (Baseline −100 μM Pentamidine) (GluD1-T649I; 100 μM pentamidine) | Pentamidine effect (Baseline −100 μM Pentamidine) (GluD1-S647F; 100 μM pentamidine) | Pentamidine effect (Baseline −100 μM Pentamidine) (GluD2-S646P; 100 μM pentamidine)
1 | N[C@H](CO)C(=O)O [D-serine] | 8.9 ± 1.2 (9) nA | 14 ± 3.8 (10) nA | 5.2 ± 6.0 (11) nA |  |  | 
2 | N=C(N)c1ccc(OCCCCCOc2ccc(C(=N)N)cc2)cc1 [Pentamidine, pentamidine] |  |  |  | −45 ± 9.5 (9) nA | −47 ± 11 (10) nA | 6.5 ± 5.4 (11) nA
